Counter-ions that a name gives are not always drawn.
How the values were obtained:
[1] = biological target: T1, FAAH (Homo sapiens, UniProt O00519); experiment: Assay Method 1: FAAH assay, 3H-anandamide hydrolysis in homogenate of T84 cells or SK-N-MC cells transfected with human FAAH
T1 sequence (O00519 1-579): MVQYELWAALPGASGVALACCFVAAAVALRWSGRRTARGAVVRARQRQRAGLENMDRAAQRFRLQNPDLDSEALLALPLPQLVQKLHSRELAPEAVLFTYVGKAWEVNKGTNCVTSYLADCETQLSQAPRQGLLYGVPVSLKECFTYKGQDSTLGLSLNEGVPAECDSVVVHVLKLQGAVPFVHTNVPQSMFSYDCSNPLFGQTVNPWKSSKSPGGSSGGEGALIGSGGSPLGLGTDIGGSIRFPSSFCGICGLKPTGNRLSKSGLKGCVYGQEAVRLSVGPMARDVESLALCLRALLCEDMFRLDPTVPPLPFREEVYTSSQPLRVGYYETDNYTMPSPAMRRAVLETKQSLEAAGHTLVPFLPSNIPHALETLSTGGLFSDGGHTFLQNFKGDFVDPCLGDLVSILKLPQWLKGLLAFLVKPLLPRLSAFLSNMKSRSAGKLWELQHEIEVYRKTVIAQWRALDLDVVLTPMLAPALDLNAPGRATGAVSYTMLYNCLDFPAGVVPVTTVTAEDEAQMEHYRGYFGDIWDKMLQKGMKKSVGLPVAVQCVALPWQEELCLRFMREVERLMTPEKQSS

[2] = biological target: T2, Rat FAAH-1 (Rattus norvegicus, UniProt P97612); experiment: Assay Method 2: rat FAAH-1 assay, 3H-anandamide hydrolysis in homogenate of SK-N-MC cells transfected with rat FAAH
T2 sequence (P97612 1-579): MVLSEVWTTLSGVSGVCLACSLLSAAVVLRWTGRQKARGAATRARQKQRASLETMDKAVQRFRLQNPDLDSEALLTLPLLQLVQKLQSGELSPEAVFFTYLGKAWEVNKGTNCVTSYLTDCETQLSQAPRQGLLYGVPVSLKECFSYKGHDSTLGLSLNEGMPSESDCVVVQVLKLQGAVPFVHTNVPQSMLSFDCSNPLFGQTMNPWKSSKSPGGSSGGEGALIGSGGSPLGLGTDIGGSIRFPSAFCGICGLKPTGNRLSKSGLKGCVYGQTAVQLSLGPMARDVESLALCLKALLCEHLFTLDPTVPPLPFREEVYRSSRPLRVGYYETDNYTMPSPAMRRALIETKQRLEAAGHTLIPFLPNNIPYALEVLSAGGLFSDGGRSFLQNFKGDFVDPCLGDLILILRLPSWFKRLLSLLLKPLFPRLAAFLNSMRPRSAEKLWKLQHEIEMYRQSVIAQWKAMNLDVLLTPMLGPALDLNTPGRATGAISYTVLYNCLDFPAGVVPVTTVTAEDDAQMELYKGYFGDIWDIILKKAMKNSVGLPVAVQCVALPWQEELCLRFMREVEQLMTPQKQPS

Row | IC50 [1] [nM] | IC50 [2] [nM] | SMILES
1 | 88 | 446 | O[C@@H](CNc1cc(-c2cc(F)cc(Cl)c2)ncn1)c1ccccc1 [Example 43, (1R)-2-{[6-(3-Chloro-5-fluorophenyl)pyrimidin-4-yl]amino}-1-phenylethanol trifluoroacetic acid salt]
2 | 206 | 793 | O[C@@H](CNc1cc(-c2cc(F)cc(C(F)(F)F)c2)ncn1)c1ccccc1 [Example 42, (1R)-2-({6-[3-Fluoro-5-(trifluoromethyl)phenyl]pyrimidin-4-yl}amino)-1-phenylethanol trifluoroacetic acid salt]
3 | 11 | 128 | CSc1ccc(-c2cc(NCC(O)c3ccccc3)ncn2)cc1 (stereo not shown) [Example 225, 2-[6-(4-Methylsulfanyl-phenyl)-Pyrimidin-4-ylamino]-1-phenyl-ethanol]
4 | > 10000 | > 10000 | OC(CNc1cc(-c2ccsc2)ncn1)c1ccccc1 (stereo not shown) [Example 245, 1-Phenyl-2-(6-thiophen-3-yl-pyrimidin-4-ylamino)-ethanol]
5 | 633 | > 10000 | CN(C)c1ccc(-c2cc(NC[C@H](O)c3ccccc3)ncn2)cn1 [Example 78, (1R)-2-({6-[6-(Dimethylamino)pyridin-3-yl]pyrimidin-4-yl}amino)-1-phenylethanol]
6 | 2 | 5 | O[C@@H](CNc1cc(-c2ccc(OC(F)(F)F)c(F)c2)ncn1)c1ccc(F)cc1 [Example 174, (1R)-1-(4-Fluorophenyl)-2-({6-[3-fluoro-4-(trifluoromethoxy)phenyl]pyrimidin-4-yl}amino)ethanol trifluoroacetic acid salt]
7 | 22 | 400 | OC(CNc1cc(-c2ccc(C(F)(F)F)c(Cl)c2)ncn1)c1cc(-c2ccc(Cl)c(Cl)c2)no1 (stereo not shown) [Example 213, 2-[6-(3-Chloro-4-trifluoromethyl-phenyl)-pyrimidin-4-ylamino]-1-[3-(3,4-dichloro-phenyl)-isoxazol-5-yl]-ethanol]
8 | > 10000 | 1000 | OC(CNc1cc(-c2ccc(C(F)(F)F)c(Cl)c2)ncn1)c1cc2cc(Br)ccc2s1 (stereo not shown) [Example 218, 1-(5-Bromo-1-benzothiophen-2-yl)-2-({6-[3-chloro-4-(trifluoromethyl)phenyl]pyrimidin-4-yl}amino)ethanol]
9 | 92 | 1000 | O[C@@H](CNc1cc(-c2ccc(OCC3CC3)cc2)ncn1)c1ccccc1 [Example 32, (1R)-2-({6-[4-(Cyclopropylmethoxy)phenyl]pyrimidin-4-yl}amino)-1-phenylethanol trifluoroacetic acid salt]
10 | 4 | 19 | Cc1noc2cc(-c3cc(NC[C@H](O)c4ccccc4)ncn3)ccc12 [Example 165, (1R)-2-{[6-(3-Methyl-1,2-benzisoxazol-6-yl)pyrimidin-4-yl]amino}-1-phenylethanol]
11 | 150 | 1000 | OC(CNc1cc(-c2ccc3c(c2)OCO3)ncn1)c1ccccc1 (stereo not shown) [Example 232, 2-(6-Benzo[1,3]dioxol-5-yl-pyrimidin-4-ylamino)-1-phenyl-ethanol]
12 | 14 | 126 | CN(C)S(=O)(=O)c1ccc(-c2cc(NC[C@H](O)c3ccccc3)ncn2)cc1 [Example 76, 4-(6-{[(2R)-2-Hydroxy-2-phenylethyl]amino}pyrimidin-4-yl)-N,N-dimethylbenzenesulfonamide]
13 | 36 | 160 | OC(CNc1cc(-c2ccc(C(F)(F)F)c(Cl)c2)ncn1)c1cc(-c2ccc(Cl)cc2)no1 (stereo not shown) [Example 214, 1-[3-(4-Chloro-phenyl)-isoxazol-5-yl]-2-[6-(3-chloro-4-trifluoromethyl-Phenyl)-pyrimidin-4-ylamino]-ethanol]
14 | 7000 | 2000 | O[C@H](CNc1cc(-c2ccc(C(F)(F)F)c(Cl)c2)ncn1)c1ccc(Cl)c(F)c1 [Example 145, (1S)-1-(4-Chloro-3-fluoro-phenyl)-2-[6-(3-chloro-4-trifluoromethyl-phenyl)-pyrimidin-4-ylamino]-ethanol]
